Source: USRE47245E1, “Pro-angiogenic peptides and uses thereof” (Susavion Biosciences, Inc., priority 2006, dated 2019)
Where no end group is shown, it is not given here.

Legend:
[1] = test system: 786-0 human renal cell adenocarcinoma cell line; test: Pro-angiogenic activity: growth of xenograft tumor in nude mouse; format: in vivo, nude mouse (nu/nu); settings: in combination with the WNSTL construct
Protocol: Tumors require vascularization to obtain nutrients to support growth. Therefore, stimulation of growth of a tumor in response to administration of a construct of this invention is an indication of angiogenesis. For this example, a xenograph model system with the nude mouse (nu/nu) was used to determine the effect of peptide on growth of 786-0 human renal cell adenocarcinoma cell line injected into the flank of a mouse so as to induce a tumor. After the tumor was established, peptide was injected subcutaneously on alternate days. The weight of the tumor was estimated by calculation of the volume.
FIG. 4 illustrates data resulting from assays for pro-angiogenic activity for one embodiment of the invention. […] The peptide was also assayed in combination with Sorafenib, an anti-angiogenic drug.

[2] = test system: macrophages in PBMC cultures; test: Stimulation of phagocytosis: macrophages engulfing microspheres opsonized with anti-HIV antibodies; format: cell-based, human; settings: PBMC cultures pretreated; control cultures 0 to 3 beads
Protocol: The activity of the peptides to stimulate phagocytosis was assessed by the ability of macrophages to engulf microspheres opsonized with anti-HIV antibodies. A biotin-tagged peptide epitope of a surface protein of HIV-1 was bound to streptavidin on the surface of the beads. An antibody preparation that was raised against this epitope was then bound to the HIV peptide. The beads were then washed and presented to PBMC cultures pretreated with peptides. Macrophages in cultures not treated with peptides had little, if any, phagocytic activity. In multiple control cultures, the number of beads within a macrophage-like cell ranged from 0 to 3. In the cultures treated with peptide constructs containing four copies of the peptide sequences WNSTL (SEQ ID NO:1), NQHTPR (SEQ ID NO:2), or VQATQS (SEQ ID NO:8), an average of 10 beads were counted in each phagocytic cell, with no substantial difference between peptide constructs.

[3] = test system: peripheral blood mononuclear cells (PBMCs); test: Regulation of cytokine release: cytokine antibody array on medium of PBMC cultures; format: cell-based, human
Protocol: To determine whether the peptides regulate induction or inhibition of release of cytokines, cultured peripheral blood mononuclear cells (PBMCs) were treated with one peptide embodiment of the invention and, after 4 hour incubation, the medium was collected and assayed for changes in the amounts of 40 different cytokines. The peptide construct containing four copies of WNSTL (SEQ ID NO:1), illustrated in FIG. 2A, was added at a concentration of 100 nM in each of the assays. The PBMC cultures were established with cells from Cellular Technology, Ltd. (Shaker Heights, Ohio). Approximately 3 million cells of frozen human PBMCs were thawed at 37° C. and transferred to a 50 mL conical tube where 8 mL of wash medium were added slowly. Then an additional 8 mL were added and swirled to mix. The cells were then centrifuged at 330 g for 10 min, the supernatant was removed and the pellet was resuspended in 10 mL wash medium and centrifuged as above. The washed cells were then resuspended in RPMI 1640 medium containing 10% FBS to about 6 million cells per mL and 100 μL of the suspension were added into each well of a 96-well microtiter plate and incubated overnight at 37° C. in humidified 5% CO2. After 24 hr, the medium was replaced with 200 μL fresh RPMI 1640 medium containing 10% FBS and incubated at 37° C. in humidified 5% CO2 for 2 days. For the data shown in TABLE 1, an aliquot of the peptide construct was added to samples in duplicate at a final concentration of 5 nM or 100 nM and incubated at 37° C. in humidified 5% CO2 for 4 hr. For other experiments (data not included), the incubation was continued for 24 hr. The medium was then removed and stored at […]. The samples were analyzed for production of cytokines. One set of control cells was not treated with an experimental agent. A second set of control cells was treated with LPS, the agent commonly used to induce production of a variety of inflammatory cytokines.
Assays of cytokine levels in samples of culture media were performed using methods developed by RayBiotech, Inc. (Norcross, Ga.). In this technology, membrane arrays of antibodies against cytokines were incubated with samples of media. After washing, the array was incubated with a cocktail of all antibodies tagged with biotin. The membrane was then washed free of unbound antibodies and incubated with streptavidin labeled with a fluorescent dye. After a final wash, the membrane arrays were read in a fluorescence detector and the intensities of the spots quantitated to obtain relative values.
One set of control samples was not treated with peptide and a second set of control samples was treated with lipopolysaccharide (LPS) in the absence of the peptide construct. The structure of the construct is illustrated in FIG. 2A. […] The decrease in IL-8 concentration in the peptide-treated sample, as compared with the amount of IL-8 in the sample treated with the proto-typical inflammatory agent LPS, is particularly notable. […] The increase in the proangiogenic PDGF-BB and the decrease in the inflammatory IL-8, without concomitant stimulation of inflammation, are of particular importance with respect to wound healing. […]

[4] = PBMCs in serum, 4 hr, construct 100 nM

Compound: CNC(=O)c1cc(Oc2ccc(NC(=O)Nc3ccc(Cl)c(C(F)(F)F)c3)cc2)ccn1 [Sorafenib, reference compound]
- effect on the peptide-enhanced tumor growth [1]: strongly (but not completely) inhibited

Compound: IFN-γ: cytokine Interferon-gamma used as comparison treatment [reference compound]
- average beads counted in each phagocytic cell [2]: roughly 15 beads

Compound: NQHTPR: branched construct: four copies of core sequence NQHTPR, each via GGGS linker on tri-lysine framework (also: tetramer: four copies each via GGGS linker on tri-lysine framework (branched))
- Relative concentration of Eotaxin [3, 4]: 57
- Relative concentration of Eotaxin-2 [3, 4]: 310
- Relative concentration of IL-12p40 [3, 4]: 45
- Relative concentration of IL-12p70 [3, 4]: 65
- Relative concentration of IL-15 [3, 4]: 146
- Relative concentration of IL-16 [3, 4]: 8
- Relative concentration of IL-17 [3, 4]: 14
- Relative concentration of IL-21 [3, 4]: 200
- Relative concentration of M-CSF [3, 4]: 116
- Relative concentration of MCP-2 [3, 4]: 90
- Relative concentration of MIG [3, 4]: 100
- Relative concentration of MIP-1b [3, 4]: 777
- Relative concentration of TIMP-2 [3, 4]: 110
- Relative concentration of TNF-β [3, 4]: 84
- Relative concentration of sTNF RII [3, 4]: 26
- average beads counted in each phagocytic cell [2]: 10 beads

Compound: VQATQS: construct containing four copies of core sequence VQATQS (also: four copies, branched construct)
- Relative concentration of Eotaxin-2 [3, 4]: 401
- Relative concentration of I-309 [3, 4]: 101
- Relative concentration of IL-4 [3, 4]: 64
- Relative concentration of IL-6 [3, 4]: 167
- Relative concentration of IL-10 [3, 4]: 67
- Relative concentration of IL-12p40 [3, 4]: 74
- Relative concentration of IL-12p70 [3, 4]: 112
- Relative concentration of IL-15 [3, 4]: 134
- Relative concentration of IL-16 [3, 4]: 10
- Relative concentration of IL-17 [3, 4]: 21
- Relative concentration of IL-21 [3, 4]: 90
- Relative concentration of IP-10 [3, 4]: 334
- Relative concentration of M-CSF [3, 4]: 90
- Relative concentration of MCP-1 [3, 4]: 1,966
- Relative concentration of PDGF-BB [3, 4]: 83
- Relative concentration of TGF-β1 [3, 4]: 83
- Relative concentration of TIMP-2 [3, 4]: 175
- Relative concentration of TNF-α [3, 4]: 98
- Relative concentration of TNF-β [3, 4]: 91
- Relative concentration of sTNF RI [3, 4]: 75
- Relative concentration of sTNF RII [3, 4]: 20
- average beads counted in each phagocytic cell [2]: 10 beads

Compound: VSNQH: construct containing four copies of core sequence VSNQH (also: four copies of core sequence, branched construct)
- Relative concentration of Eotaxin [3, 4]: 47
- Relative concentration of Eotaxin-2 [3, 4]: 470
- Relative concentration of GM-CSF [3, 4]: 96
- Relative concentration of ICAM-1 [3, 4]: 70
- Relative concentration of IFN-γ [3, 4]: 170
- Relative concentration of IL-1α [3, 4]: 322
- Relative concentration of IL-12p40 [3, 4]: 52
- Relative concentration of IL-12p70 [3, 4]: 117
- Relative concentration of IL-15 [3, 4]: 137
- Relative concentration of IL-17 [3, 4]: 21
- Relative concentration of IL-21 [3, 4]: 130
- Relative concentration of IP-10 [3, 4]: 377
- Relative concentration of MCP-2 [3, 4]: 97
- Relative concentration of MIG [3, 4]: 94
- Relative concentration of PDGF-BB [3, 4]: 82
- Relative concentration of TIMP-2 [3, 4]: 285
- Relative concentration of TNF-α [3, 4]: 138
- Relative concentration of TNF-β [3, 4]: 93

Compound: lipopolysaccharide [LPS, reference compound]
- Relative concentration of IL-2 ([3]; PBMCs in serum, 4 hr): 90
- Relative concentration of IL-3 ([3]; PBMCs in serum, 4 hr): 132
- Relative concentration of IL-13 ([3]; PBMCs in serum, 4 hr): 125
- Relative concentration of MIP-1a ([3]; PBMCs in serum, 4 hr): 237
- Relative concentration of MIP-1d ([3]; PBMCs in serum, 4 hr): 38
- change in the amount of the inflammatory cytokine IL-6 compared to untreated control samples ([3]; PBMCs in serum, 4 hr): significantly elevated
- Relative concentration of Eotaxin [3, 4]: 31
- Relative concentration of Eotaxin-2 [3, 4]: 469
- Relative concentration of GCSF [3, 4]: 120
- Relative concentration of GM-CSF [3, 4]: 106
- Relative concentration of I-309 [3, 4]: 39
- Relative concentration of ICAM-1 [3, 4]: 53
- Relative concentration of IFN-γ [3, 4]: 158
- Relative concentration of IL-1α [3, 4]: 246
- Relative concentration of IL-1β [3, 4]: 47
- Relative concentration of IL-4 [3, 4]: 49
- Relative concentration of IL-6 [3, 4]: 4,375
- Relative concentration of IL-6sR [3, 4]: 52
- Relative concentration of IL-7 [3, 4]: 178
- Relative concentration of IL-8 [3, 4]: 840
- Relative concentration of IL-10 [3, 4]: 218
- Relative concentration of IL-11 [3, 4]: 26
- Relative concentration of IL-12p40 [3, 4]: 46
- Relative concentration of IL-12p70 [3, 4]: 89
- Relative concentration of IL-15 [3, 4]: 104
- Relative concentration of IL-16 [3, 4]: 2
- Relative concentration of IL-17 [3, 4]: 10
- Relative concentration of IP-10 [3, 4]: 268
- Relative concentration of M-CSF [3, 4]: 59
- Relative concentration of MCP-2 [3, 4]: 177
- Relative concentration of MIG [3, 4]: 66
- Relative concentration of MIP-1b [3, 4]: 1,828
- Relative concentration of PDGF-BB [3, 4]: 56
- Relative concentration of RANTES [3, 4]: 114
- Relative concentration of TGF-β1 [3, 4]: 62
- Relative concentration of TIMP-2 [3, 4]: 92
- Relative concentration of TNF-α [3, 4]: 93
- Relative concentration of TNF-β [3, 4]: 95
- Relative concentration of sTNF RI [3, 4]: 58
- Relative concentration of sTNF RII [3, 4]: 26
- relative IL-6 concentration ([3]; in one experiment, untreated control 98): 5,879
